Data: paper PMC10087438 (The Febs Journal, 2022)

How the values were obtained:
[1] = biological target: T1, PaNADK (NAD kinase from Pseudomonas aeruginosa) (Pseudomonas aeruginosa, UniProt Q9HZC0); experiment: X-ray crystal structure, […] Å; format: binding
T1 sequence (Q9HZC0 1-295): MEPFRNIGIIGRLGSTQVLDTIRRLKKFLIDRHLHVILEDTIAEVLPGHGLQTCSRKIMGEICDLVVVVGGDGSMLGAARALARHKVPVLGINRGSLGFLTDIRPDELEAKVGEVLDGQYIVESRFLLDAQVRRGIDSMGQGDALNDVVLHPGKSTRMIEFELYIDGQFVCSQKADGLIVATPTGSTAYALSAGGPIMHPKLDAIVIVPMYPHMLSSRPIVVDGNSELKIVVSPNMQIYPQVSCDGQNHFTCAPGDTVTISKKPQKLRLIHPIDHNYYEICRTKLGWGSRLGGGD

[2] = biological target: T2, LmNADK (NADK 1 from Listeria monocytogenes) (Listeria monocytogenes, UniProt Q8Y8D7); experiment: enzyme inhibition; format: biochemical
T2 sequence (Q8Y8D7 1-264): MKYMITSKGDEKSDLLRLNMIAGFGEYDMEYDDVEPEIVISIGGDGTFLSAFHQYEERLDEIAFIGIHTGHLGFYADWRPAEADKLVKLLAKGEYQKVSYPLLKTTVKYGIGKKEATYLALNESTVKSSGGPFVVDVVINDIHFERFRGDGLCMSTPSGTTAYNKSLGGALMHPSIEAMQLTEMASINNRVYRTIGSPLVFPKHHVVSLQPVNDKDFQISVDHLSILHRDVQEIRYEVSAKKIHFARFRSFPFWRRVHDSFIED

[3] = biological target: T1, PaNADK (NAD kinase from Pseudomonas aeruginosa); experiment: G6PDH-coupled enzyme assay, global competitive inhibition fit; format: biochemical
purified protein [4] = substrate: NC(=O)c1ccc[n+]([C@@H]2O[C@H](COP(=O)([O-])OP(=O)(O)OC[C@H]3O[C@@H](n4cnc5c(N)ncnc54)[C@H](O)[C@@H]3O)[C@@H](O)[C@H]2O)c1; experiment: purified protein; conditions: MgATP
purified protein [5] = substrate: Nc1ncnc2c1ncn2[C@@H]1O[C@H](COP(=O)(O)OP(=O)(O)OP(=O)(O)O)[C@@H](O)[C@H]1O; experiment: purified protein; conditions: Mg2+

**Q.** Which “X-ray crystal structure, 2.3 Å” value [1] does the source give for NC(=O)c1ccc[n+]([C@@H]2O[C@H](COP(=O)([O-])OP(=O)(O)OC[C@H]3O[C@@H](n4cnc5c(N)ncnc54)[C@H](OP(=O)(O)O)[C@@H]3O)[C@@H](O)[C@H]2O)c1 [NADP^+] here?
**A.** Its value is “we determined the atomic structure of the protein bound to NADP^+ by X‐ray crystallography”.

**Q.** For NC(=O)c1cccc([C@@H]2O[C@H](COCC#Cc3nc4c(N)ncnc4n3[C@@H]3O[C@H](CO)[C@@H](O)[C@H]3O)[C@@H](O)[C@H]2O)c1 [compound 1, 5‐O ‐[3‐(adenosin‐8‐yl)prop‐2‐yn‐1‐yl]‐1‐deoxy‐1‐(3‐carbamoylphenyl)‐β‐D‐ribofuranose], which Ki [2] is on record?
**A.** Its Ki is 3.2 ± 0.4 µM.

**Q.** What about the Ki [3] of the same molecule?
**A.** Its Ki is 4.6 ± 0.3 µM.

B1: PaNADK (NAD kinase from Pseudomonas aeruginosa) (Pseudomonas aeruginosa PAO1) (protein)
chain: MEPFRNIGIIGRLGSTQVLDTIRRLKKFLIDRHLHVILEDTIAEVLPGHGLQTCSRKIMGEICDLVVVVGGDGSMLGAARALARHKVPVLGINRGSLGFLTDIRPDELEAKVGEVLDGQYIVESRFLLDAQVRRGIDSMGQGDALNDVVLHPGKSTRMIEFELYIDGQFVCSQKADGLIVATPTGSTAYALSAGGPIMHPKLDAIVIVPMYPHMLSSRPIVVDGNSELKIVVSPNMQIYPQVSCDGQNHFTCAPGDTVTISKKPQKLRLIHPIDHNYYEICRTKLGWGSRLGGGD
**Q.** What does the source list for B1?
**A.** Km (purified protein [4]): 150 µM; Km (purified protein [5]): 2000 µM
